# Laboratory results published in patent US10149644B2, “Curcumin derivatives for amyloid-β plaque imaging” (The General Hospital Corporation, priority 2008, dated 2018).
# Entries after “also recorded” stand apart in the source; their conditions may differ. Where two headings read alike, the source gives them in different places.
# Key:
# [1] = target: T1, BSA (Bos taurus, UniProt P02769); assay: BSA interaction; assay type: binding; conditions: BSA 20 μg/mL, probe 5 μM
# T1 construct: purchased Sigma
# Method: CRANAD-2 was added to a BSA (20 μg/mL) solution to make the final concentration of 5 μM. The fluorescence spectrum of the above mixture was recorded (excited at 590 nm). For comparisons, CRANAD-2 (5 μM) in PBS, PBS alone, and Aβ40 aggregates ([…]) and CRANAD-2 (5 μM) were prepared.
# (§1) Since serum albumin is the most abundant plasma protein, it was important to test whether the probe had any affinity toward this protein. To test this the inventors incubated CRANAD-2 probe with BSA. For controls, the inventors used PBS buffer alone, the probe incubated in PBS alone, and with Aβ40 aggregates. […] In addition, the inventors tested CRANAD-2 stability by incubating the probe (4×10^−6M) with human serum for 2 hours at 37° C.
# [2] = Fluorescence emission properties of the probes; assay type: physicochemical
# Method: Reagents used for synthesis were purchased from Aldrich without further purification. Column chromatography was performed on silica gel (SiliCycle Inc., 60 Å, […]) slurry packed into glass columns. Thioflavin S was purchased from Aldrich. Synthetic amyloid-b protein (1-40) was purchased from rPeptide (Bogart, Ga., 30622) and aggregates for in vitro studies were generated followed the reported procedure. BSA was purchased from Sigma, and human serum was obtained from Invitrogen (type AB). ^1H and ^13C NMR spectra were recorded at 400 MHz and 100 MHz respectively, and are reported in ppm downfield from tetramethylsilane. Fluorescence studies were carried out with F-4500 Fluorescense Spectrophotometer. Fluorescence quantum yields were determined using aqueous solution of Cy5.5-maleimide as a standard (y=0.23). High resolution mass spectra were obtained at the Harvard University, Department of Chemistry Instrumentation Facility. Transgenic Tg2576 mice {45} and littermates were purchased from Taconic Farm, Balb/c mice for BBB penetrating test were obtained from Jackson Laboratory, and the experiment procedure was approved by Massachusetts General Hospital. In vivo imaging was recorded on Kodak Imaging Station 2000MM.
# Furthermore, by comparing the fluorescence intensity in methanol, the quantum yield of CRANAD-2 was significant higher than that of curcumin (FIG. 2). […] Additionally, these modifications produced a large stokes shift and improved quantum yield of CRANAD-2. The synthesized compound produced the longest emission and the largest stokes shift among the existing probes for senile plaque detection {3}.
# [3] = target: T2, Aβ40 aggregates (Homo sapiens, UniProt P05067); assay: Aβ aggregates detection in solution by fluorescence spectrum; assay type: binding; conditions: 250 nM compound, 250 nM Aβ40 aggregates, PBS, one minute
# T2 construct: Synthetic amyloid-b protein (1-40) was purchased from rPeptide; purchased rPeptide (Bogart, Ga.)
# Method: They then incubated 250 nM of the compounds with 250 nM of Aβ40 aggregates (calculation based on monomer) in PBS for one minute, and then measured the fluorescence spectra of the solutions.
# [4] = Serum stability test; assay type: in vitro ADME, human; conditions: for recovery at 2 h, 4 μM: human, human serum, 37° C., ethyl acetate extraction
# Method: CRANAD-2 (4.0 μM) was incubated at 37° C. for 2 h with 1.0 mL human serum, then ethyl acetate (4×5.0 mL) was added, stirred at room temperature for 10 min., and centrifuged to give clear organic supernatant. The ethyl acetate solution was subjected to fluorescence intensity measurement (F.I.(660 nm)=8713), and the concentration of CRANAD-2 was calculated (0.14 μM) using the equation (Y=474+61.7 X, where Y is F.I., and X is the concentration) generated from standard curve of CRANAD-2 in ethyl acetate. The recovery of CRANAD-2 was about 70%. After the fluorescence measurement, the ethyl acetate solution was concentrated to 40 μL, and 10 μL was injected for HPLC analysis. By HPLC, the recovery of CRANAD-2 was about 75%, which was close to the result from fluorescence measurement.
# as §1
# [5] = system: Aβ plaques; assay: AD tissue staining of APP-PS1 brain sections; conditions: 25 micron sections, 12-month old APP-PS1 mice
# From the text: The inventors conducted tissue staining with 25 micron brain sections from 12-month old APP-PS1 mice by all the compounds listed in FIG. 12.
# [6] = Log P measurement (octanol/water); assay type: physicochemical
# Method: Log p measurement was performed according to the reported procedure {35}. CRANAD-2 (0.125 mM) in Octanol 2.0 mL was subjected to partition with octanol-saturated water 2.0 mL. The resulting mixture was stirred vigorously for 5 min., and centrifuged at 2,000 rpm for 5 min. The octanol layer was separated from water layer, and its fluorescence spectrum was recorded (excited at 590 nm). The above water layer was partitioned with water-saturated octanol 2.0 mL, and the octanol layer was separated after 5 min. vigorous stirring and 5 min. centrifuge at 2,000 rpm, and its spectrum was recorded. The log P value was calculated by the fluorescence intensity ratio at 690 nm for the above two octanol extractions.
# In order for the probe to cross blood brain barrier, its lipophilicity (log P) should be within 2-5 range.
# [7] = system: senile plaques; assay: Ex vivo histological correlation; assay type: in vivo, mice; conditions: 19-month old transgenic mice, 10 mg/kg i.v.
# Method: 19 month-old mouse was injected CRANAD-2 (10.0 mg/kg), and was sacrified after perfusion with 4% formaldehyde. The brain was taken and embedded in OCT. For histology, the brain was sliced into 25μ slices, and co-stained with thioflavin S as described above. To obtain ex vivo confirmation of the probe binding, mice at different ages were i.v injected with 10 mg/kg of CRANAD-2 probe, perfused and scarified at 1 h after injection.
# [8] = target: T2, Aβ40 aggregates; assay: Fluorescence response of probe to Aβ40 aggregates, Aβ40 monomer and PBS; assay type: binding
# From the text: We compared the fluorescence intensity of CRANAD-2 with PBS (pH 7.4), Aβ40 peptide, and Aβ40 aggregates generated from Cu^2+ induced aggregation.
# [9] = target: T2, Aβ40 aggregates; assay: In vitro Aβ aggregates binding constant measurement
# Method: […] The Kd binding curve was generated by software Prism 3.0 with nonlinear one-site binding regression.
# Binding constant (Kd) of CRANAD-2 towards Aβ aggregates was measured by fluorescence intensity (F.I.) with various concentrations of the prob.
# T1 sequence (P02769 25-607): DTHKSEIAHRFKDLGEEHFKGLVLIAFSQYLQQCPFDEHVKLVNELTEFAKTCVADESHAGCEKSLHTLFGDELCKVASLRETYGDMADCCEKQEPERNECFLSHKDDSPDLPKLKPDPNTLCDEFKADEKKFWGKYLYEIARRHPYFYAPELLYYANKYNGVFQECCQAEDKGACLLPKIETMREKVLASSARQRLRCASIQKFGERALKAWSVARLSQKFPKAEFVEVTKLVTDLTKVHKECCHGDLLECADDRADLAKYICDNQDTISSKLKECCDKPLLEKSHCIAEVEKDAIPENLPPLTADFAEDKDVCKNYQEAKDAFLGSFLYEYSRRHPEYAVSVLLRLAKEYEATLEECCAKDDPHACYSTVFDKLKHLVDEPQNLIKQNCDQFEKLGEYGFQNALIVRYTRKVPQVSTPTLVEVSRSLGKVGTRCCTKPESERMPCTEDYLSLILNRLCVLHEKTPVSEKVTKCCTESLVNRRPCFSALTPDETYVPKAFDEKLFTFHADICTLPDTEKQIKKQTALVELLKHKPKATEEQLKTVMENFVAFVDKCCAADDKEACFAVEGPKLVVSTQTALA
# T2 sequence (P05067 672-711 limits assumed): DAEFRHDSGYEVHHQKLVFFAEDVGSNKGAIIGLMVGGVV
compound,measurement,setting,value
CN(C)c1ccc(/C=C/C2=CC(/C=C/c3ccc(N(C)C)cc3)=[O+][B-](F)(F)O2)cc1 [CRANAD-2],Binding to BSA / fluorescence change with BSA,[1],did not observe any significant change in fluorescence; also recorded: did not show any significant binding; also recorded: does not show any significant binding
same,Stoke shift in PBS,[2]; PBS only,140 nm
same,Stoke shift in PBS with Aβ aggregates,[2]; PBS with Aβ aggregates,70 nm
same,λmax(em),"[2]; probe alone, methanol (FIG. 2)",760 nm
same,λmax(ex),"[2]; probe alone, methanol (FIG. 2)",640 nm
same,Fluorescence intensity change with Aβ40 aggregates,[3],intensity increases
same,Wavelength shift with Aβ40 aggregates,[3],wavelength blue-shifts
same,Stability in serum in vitro,[4],considerable stability in serum
same,"recovery at 2 h, 4 μM","[4]; read-out: Recovery after serum incubation, by HPLC",~75%
same,"recovery at 2 h, 4 μM","[4]; read-out: Recovery after serum incubation, by fluorescence",~70%
same,Staining of plaques in brain sections,[5],good staining
same,Staining of plaques in brain sections,[5]; listed as CRANAD2,stained the plaques brightly
same,logP,[6],3
same,Labelling of senile plaques ex vivo after i.v. injection,[7],senile plaques were observed
same,Fluorescence intensity with Aβ40 peptide monomer vs PBS,[8]; Aβ40 monomer,did not observe any significant difference
same,Quantum yield in PBS buffer,[8]; PBS buffer,0.6%
same,Quantum yield in PBS,"[8]; PBS, given as fraction",0.006
same,Quantum yield after binding to Aβ40 aggregates,"[8]; bound to Aβ40 aggregates, given as fraction",0.40
same,Quantum yield upon binding to aggregates,[8]; bound to aggregates,40%
same,Fluorescence intensity increase in the presence of Aβ40 aggregates,[8]; vs PBS,70 fold
same,Affinity to Aβ aggregates,[9],high affinity to Aβ aggregates
same,Kd,"[9]; Aβ40 aggregates in PBS, fluorescence intensity, nonlinear one-site regression, read-out: Binding constant (Kd) towards Aβ aggregates",38.7 ± 2.77 nM
